Here are results for 4 compounds from patent publication US20260027179A1, “ANTI-SYNUCLEINOPATHY PEPTIDE AND METHODS TO TREAT NEURODEGENERATIVE DISEASES” (University of British Columbia, priority 2021, published 2026).

Peptide text beside a SMILES is read from it. * marks the point of attachment. Cbz = O=C(OCc1ccccc1)*

The target in one assay is T1, endogenous α-synuclein (Rattus norvegicus, UniProt P37377).
T1 construct: endogenous in cells; host or cells: primary rat cortical neurons (14 DIV) and primary rat ventral midbrain neurons (3 DIV)
The assay is described as follows: Knockdown of endogenous α-synuclein in primary cortical neuron cultures, immunoblot. Type of assay: cell-based. How it is done: Primary rat neuron cultures were prepared from embryos of pregnant Sprague-Dawley rats (E18). The experimental protocol was approved by the University of British Columbia Animal Care Committee. Briefly, the cortical tissue or ventral midbrain tissue was isolated into ice cold HBSS (Invitrogen, 14170-112) and then digested with 0.25% trypsin-EDTA at 37° C. for 30 min. After washing with warm DMEM (supplemented with 10% FBS) three times, neurons were suspended in neuron culture media and dissociated by trituration using varying sizes of pipettes. Neurons were then centrifuged, and the pellet was re-suspended in culture media, washed twice with culture media, and plated on the poly-D-lysine-coated plates. Neuron culture was maintained in the 37° C. incubator with […] and 5% CO2. The morning after culturing, 2/3 of the neuron culture media was replaced with fresh neuron culture media. Media was then replaced every 3-4 days. Primary rat cortical neuron culture was used 14 days in vitro (DIV) and primary rat ventral midbrain neuron culture was used 3 DIV.
Tat-βsyn-degron and Tat-βsyn peptides were first dissolved in sterile water as a 25 mM stock solution and then diluted directly in the neurobasal culture media to make the desired working concentration. 20 mM MPP+iodide stock solution was made freshly each time and diluted in the neurobasal culture media directly to make the desired working concentration. For 48 hrs treatment, neuron culture media containing MPP+ and peptides were replaced every 24 hrs.
(§1) Brain tissues or cultured cells were lysed on ice in the lysis buffer and then the solution was centrifuged at 14,000 rpm for 10 min at 4° C. Next, the supernatant was collected and protein concentrations were determined using a BCA protein assay kit (Thermo Scientific, 23227). Equal amount of protein samples was mixed with 4× sample buffer, boiled at 100° C. for 5 min, and separated on 10% sodium dodecyl sulphate-polyacrylamide gel electrophoresis (SDS-PAGE). Proteins were then transferred to Immobilon-PTM polyvinylidene fluoride (PVDF) membranes (Bio-Rad, 162-0177). The membranes were blocked with 5% non-fat milk in Tris-buffered saline containing 0.1% Tween-20 (TBST) for 1 hr at room temperature, and then incubated overnight at 4° C. with primary antibody. After washing 3×5 min in TBST, membranes were incubated with horseradish peroxidase-conjugated secondary antibody for 1 hr at room temperature. After another three washes with TBST, protein was visualized in the Bio-Rad Imager using ECL western blotting substrate (Pierce, 32016). The band density of each protein was quantified by the Bio-Rad Quantity One software and the relative optical density was analyzed relative to the loading control β-actin on the same membrane.

Assay [1] addresses T2, purified recombinant human α-synuclein (Homo sapiens, UniProt P37840).
T2 construct: His (histidine tag) (N); purchased Sigma S7820-500UG
The assay is described as follows: Biacore peptide-protein binding assay. The following applies: 0.20-12.50 μM peptide, report point 20 seconds into dissociation. As for the experimental part: Biacore experiments were performed using a Biacore 3000 instrument (GE Healthcare Biosciences, Upsala, Sweden) and HBS running buffer, pH 7.4, containing 10 mM HEPES, 150 mM NaCl, 3 mM EDTA, and 0.005% surfactant P20. A research-grade CM5 sensor chip was activated with a mixture containing equal molar amounts of EDC (N-ethyl-N′-(dimethylaminopropyl) carbodiide and NHS (N-hydroxysuccinimide). Purified recombinant human α-synuclein (N-terminal histidine tagged, Sigma, S7820-500UG), diluted in sodium acetate pH 3.1, was then injected and covalently coupled to a flow cell of the sensor chip surface by amide bonding. Residual unreacted sites were blocked with ethanolamine. A reference surface, to account for non-specific binding, was similarly generated by activating and blocking an adjacent flow cell. Approximately 1500 resonance units (RU), equivalent to a surface concentration of 1500 pg/mm^2 of α-synuclein, was immobilized.
To ascertain the binding interaction between α-synuclein knockdown peptides and α-synuclein, synthetic Tat-βsyn-degron peptide or control tat peptide was serially diluted and sequentially injected over the active surface containing immobilized α-synuclein and the reference surface for 3 minutes at a flow rate of 30 μl/minute. The peptides were then allowed to dissociate for 3 minutes during which time HBS running buffer was injected. The resultant sensorgrams were double-referenced by subtracting out the binding on the reference surface and the response from the HBS blank buffer control. Binding response report points were collected 20 seconds into the dissociation phase of the interaction at time 200 seconds, which represents a stable binding response and excludes bulk refractive index changes and nonspecific binding.
For orientation: In SPR one partner is held on a chip, and binding of the other changes the refractive index at the surface.

A further assay relates to dopaminergic neurons. The assay is described as follows: MPTP mouse model, dopaminergic neuronal damage (TH immunoblotting, TH immunohistochemistry). The settings on record: peptide 6 μmol/kg i.p. twice a day for 12 days. Type of assay: in vivo. How it is done:
C57BL/6 mice were i.p. injected with 30 mg/kg parkinsonian toxin MPTP (or saline as control), once per day for 5 consecutive days, to induce dopaminergic neuron damage. The effects of MPTP administration on mouse rotarod performance and damage to dopaminergic neurons were then analyzed 1 week after the last injection of MPTP. To determine the effect of α-synuclein knockdown in protecting dopaminergic neurons against MPTP, the Tat-βsyn-degron peptide or its control Tat-βsyn (6 μmol/kg; i.p.) was used in some animals twice a day for 12 days, beginning the first day of MPTP injection. […] The striatum is a region that receives dopaminergic neuronal projections from the substantia nigra and is also deeply affected in PD. Consistent with the specific neurotoxic effects of MPTP on dopaminergic neurons, in mice receiving MPTP injection alone there was a significant loss of protein TH in both dopaminergic neurons in the substantia nigra-containing ventral midbrain (FIGS. 6a and 6c) and dopaminergic neuronal terminals in the striatum (FIGS. 6d and 6f). […] As expected, the specific knockdown of α-synuclein by Tat-βsyn-degron protected against MPTP-induced dopaminergic neuronal injury (FIGS. 6c and 6f).
(§2) C57BL/6 mice (20-25 g) received intraperitoneal (i.p.) injection of 30 mg/kg parkinsonian toxin MPTP hydrochloride once a day for 5 days to induce dopaminergic neuron death in the substantia nigra, while the control mice received equal volumes of saline injection. 6 μmol/kg Tat-βsyn-degron peptide or control Tat-βsyn peptide was i.p. injected into the MPTP-treated mice every 12 hrs from the first day of MPTP injection until 7 days after the last injection of MPTP. All groups of mice then underwent a rotarod test before they were sacrificed.
as §1
C57BL/6 mice were anesthetized with 1.5 g/kg urethane (Sigma, U2500) and then perfused with 0.9% saline and 4% paraformaldehyde. Brains were removed and fixed in 4% paraformaldehyde for 24 hrs before being transferred to 30% sucrose/PBS solution for cryoprotection. The brains were then sectioned into 30 μm slices using a Leica cryostat. After blocking and permeabilization using a PBS solution containing 1% BSA and 0.2% Triton X-100 for 30 min at room temperature, the brain slices were incubated with anti-TH antibody (1:800 dilution) for 3 days at 4° C. Finally, the TH-positive neurons in the substantia nigra and TH-positive neuronal terminals in the striatum were stained using the anti-mouse Ig HRP detection kit (BD Transduction Laboratories, 551011) according to manufacturer's instruction, and visualized under Zeiss Axio Observer D1 microscope. […]
In general terms: Immunoblotting shows a protein as a band on a membrane.

A further assay relates to C57BL/6 mice. The experiment in a line: MPTP mouse model, rotarod test. Type of assay: in vivo. The following applies: peptide 6 μmol/kg i.p. twice a day for 12 days, vs MPTP group. As for the experimental part: as §2
The rotarod test was performed as previously described (Heldermon, C. D. et al., PloS one 2, e772, doi:10.1371/journal.pone.0000772 (2007)), with modifications. Briefly, 6 days after the last MPTP injection, all mice received 4 rounds of training on the rotarod (Stoelting Co.). In the first two rounds of training, the rotarod was maintained at constant speed of 20 rpm for 3 min. In the second two rounds of training, the rotarod reversed rotation direction every 3 turns at the constant speed of 20 rpm for 3 min. […] Mice were tested 10 times at 20 min intervals, and the time that they remained on the rotarod during each test was recorded. […] The motor performance of the mouse was expressed as the latency to fall off the rotarod.
(The rotarod test checks motor coordination on a turning rod.)

For the compound `CC(C)C[C@@H](C=O)NC(=O)[C@H](CC(C)C)NC(=O)[C@H](CC(C)C)NC(=O)OCc1ccccc1` [MG132, reference compound] (Cbz-Leu-Leu-Leu-aldehyde), the “effect on Tat-βsyn-degron induced knockdown of α-synuclein” value at endogenous α-synuclein (10 μM MG132 + 50 μM Tat-βsyn-degron, 24 hrs) is on record as “prevented Tat-βsyn-degron induced knockdown of α-synuclein”.

“YGRKKRRQRRR [Tat peptide, reference compound]”: the “binding response to immobilized α-synuclein” value in assay [1] was “little binding”.

On to “YGRKKRRQRRRGVLYVGSKTRRRRG [Tat-βsynN-degron]”, for which, in assay [1], the “binding response to immobilized α-synuclein” value is “robust and similar binding”.

On to “YGRKKRRQRRRRTKSGVYLVG [Tat-βsyn, control peptide lacking the proteasomal targeting signal, reference compound]”, for which the “MPTP-induced dopaminergic neuronal damage (overall, FIG. 6 and FIG. 7a-d)” value with dopaminergic neurons is on record as “small, non-significant decrease”. The “MPTP-induced motor deficits (latency to fall off the rotarod)” value in the assay on C57BL/6 mice is reported as “significantly reduced”. In the assay with endogenous α-synuclein (bath application 24 hrs, 5-50 μM (control 50 μM), cortical neuron cultures), the “endogenous α-synuclein protein levels” value was “had no effect”.
